Measurements as given in patent publication US20110217715A1, “GENE EXPRESSION IN DUCHENNE MUSCULAR DYSTROPHY” (CHILDREN'S HOSPITAL MEDICAL CENTER, priority 2008, published 2011).

Columns and labels:
[1] = system: individuals with DMD; conditions: individuals with DMD; cited from earlier work
[2] = system: mdx mouse; conditions: cited from earlier work
[3] = system: mRNA expression in peripheral blood of individuals with DMD; experiment: Whole-blood gene expression microarray: DMD administered deflazacort vs DMD administered prednisone; format: in vivo, human; conditions: blood
Procedure: Fifteen ml of blood was collected from each individual into 6 PAXgene® Vacutainer® tubes (PreAnalytiX, Germany) by antecubital fossa venipuncture. PAXgene® tubes contain a proprietary reagent that immediately stabilizes RNA, thus reducing RNA degradation and minimizing gene expression changes following phlebotomy. The tubes were then inverted 20 times, then remained undisturbed for 2 h at room temperature (about 19° C. to about 22° C.), and then stored at -70° C. until processed. Total RNA was isolated using the Paxgene® blood RNA kit (PreAnalytiX, Germany) according to the manufacturers instructions. The RNA isolated is from all cells in whole blood. Typical yields of total RNA isolated from about 7.5 ml of human whole blood were between 10 μg RNA and 40 μg RNA. RNA quality and purity was analyzed by spectrophotometry using the Nanodrop ND-1000, and RNA integrity was analyzed using the Agilent 2100 Bioanalyzer. […] Sample labeling, hybridization to chips, and image scanning were performed using standard Affymetrix protocols. For each whole blood sample from control individuals and individuals with DMD, total RNA was labeled using the One-Cycle Target Labeling protocol and hybridized to the arrays. […] Double-stranded cDNA synthesis, biotin-labeled cRNA synthesis, and cRNA fragmentation were performed according to the Affymetrix GeneChip Eukaryotic Expression Analysis protocol. The labeled, fragmented cRNA (15 μg) was hybridized at 45° C. overnight. After hybridization, the array was washed and stained. The arrays were scanned with an argon-ion laser at λ=570 nm, with a resolution of 3 μm/pixel (Affymetrix, Inc.). After scanning the array, the raw probe level values for each probe were saved in Affymetrix.cel files. […] Statistical analyses, including t-test analyses, unsupervised hierarchical clustering, and principal component analyses were conducted using Genespring 7.2 software ([…]® 7, Silicon Genetics, Redwood City Calif.). […] Corrections for multiple comparisons used a Benjamini-Hochberg False Discovery Rate (FDR) of 0.05, disclosed in Tang et al., J Cereb Blood Flow Metab 26 (2006) 1089, which is expressly incorporated by reference herein in its entirety. […] Sample processing and array hybridization, probe-level data analysis, and statistical analysis were identical to Example 1.

[4] = system: mRNA expression in peripheral blood of individuals with DMD; experiment: Whole-blood gene expression microarray: DMD administered prednisone or deflazacort vs DMD not administered steroid; format: in vivo, human
Procedure: Fifteen ml of blood was collected from each individual into 6 PAXgene® Vacutainer® tubes (PreAnalytiX, Germany) by antecubital fossa venipuncture. PAXgene® tubes contain a proprietary reagent that immediately stabilizes RNA, thus reducing RNA degradation and minimizing gene expression changes following phlebotomy. The tubes were then inverted 20 times, then remained undisturbed for 2 h at room temperature (about 19° C. to about 22° C.), and then stored at -70° C. until processed. Total RNA was isolated using the Paxgene® blood RNA kit (PreAnalytiX, Germany) according to the manufacturers instructions. The RNA isolated is from all cells in whole blood. […] Sample labeling, hybridization to chips, and image scanning were performed using standard Affymetrix protocols. For each whole blood sample from control individuals and individuals with DMD, total RNA was labeled using the One-Cycle Target Labeling protocol and hybridized to the arrays. […] Double-stranded cDNA synthesis, biotin-labeled cRNA synthesis, and cRNA fragmentation were performed according to the Affymetrix GeneChip Eukaryotic Expression Analysis protocol. […] After hybridization, the array was washed and stained. […] After scanning the array, the raw probe level values for each probe were saved in Affymetrix.cel files. […] Statistical analyses, including t-test analyses, unsupervised hierarchical clustering, and principal component analyses were conducted using Genespring 7.2 software ([…]® 7, Silicon Genetics, Redwood City Calif.). […] Corrections for multiple comparisons used a Benjamini-Hochberg False Discovery Rate (FDR) of 0.05, disclosed in Tang et al., J Cereb Blood Flow Metab 26 (2006) 1089, which is expressly incorporated by reference herein in its entirety. […] Individuals with DMD were evaluated and had been diagnosed by a single board-certified pediatric neurologist. The diagnosis of DMD was based in part upon clinical history, examination findings, and selected muscle biopsies and was confirmed by molecular diagnostic testing. […] Sample processing and array hybridization, probe-level data analysis, and statistical analysis were identical to Example 1.

[5] = DMD administered deflazacort or prednisone vs not administered

| expression of interleukin 1 beta, interleukin 1 receptor antagonist, and interleukin 6 receptor ([3]; individuals with DMD administered prednisone) | Compound | muscle function and strength [1] | expression of KFL10 ([2]; six weeks of prednisone administration in the mdx mouse) | expression of genes related to lipid metabolism ([3]; prednisone compared to deflazacort) | expression levels of FKBP5 [4, 5] | expression levels of genes in the chondroitin sulfate biosynthesis pathway [4, 5] | expression levels of haptoglobin and CD163 nucleic acids [4, 5] | expression levels of lactotransferrin and lipocalin [4, 5] | expression of KFL10 ([4]; individuals administered prednisone, deflazacort, or both vs DMD not administered any agent) | function and histology ([2]; mdx mouse) |
| --- | --- | --- | --- | --- | --- | --- | --- | --- | --- | --- |
|  | Cn1cnc([N+](=O)[O-])c1Sc1ncnc2nc[nH]c12 [azathioprine] | no improvement |  |  |  |  |  |  |  |  |
| up-regulated | C[C@]12C=CC(=O)C=C1CC[C@@H]1[C@@H]2C(=O)C[C@@]2(C)[C@H]1CC[C@]2(O)C(=O)CO [prednisone] | improved muscle function and strength | up-regulated | up-regulated | up-regulated | up-regulated | up-regulated | increased expression levels | up-regulated |  |
|  | cyclosporin A |  |  |  |  |  |  |  |  | improves function and histology |
